Laboratory results reported in patent publication US20050250137A1, “Molecular targets of cancer and aging” (priority 2002, published 2005).

Test: GoMiner gene ontology analysis of differentially regulated genes
Set-up: species or system human
[1] = Cellular component: Chromosome, GO 0005694, Total 108
[2] = Cellular component: Cytoplasm, GO 0005737, Total 1705
[3] = Cellular component: Cytoplasmic vesicle, GO 0016023, Total 59
[4] = Cellular component: Cytoskeleton, GO 0005856, Total 334
[5] = Cellular component: Cytosol, GO 0005829, Total 176
[6] = Cellular component: Endoplasmic reticulum, GO 0005783, Total 244
[7] = Cellular component: Extracellular, GO 0005576, Total 586
[8] = Cellular component: Membrane, GO 0016020, Total 1976
[9] = Cellular component: Mitochondrion, GO 0005739, Total 315
[10] = Cellular component: Nucleus, GO 0005634, Total 1483
[11] = Cellular component: Ribosome, GO 0005840, Total 61
[12] = Cellular component: actin cytoskeleton, GO 0015629, Total 120
[13] = Cellular component: endomembrane system, GO 0012505, Total 112
[14] = Cellular component: extracellular matrix, GO 0005578, Total 181
[15] = Cellular component: extracellular space, GO 0005615, Total 228
[16] = Cellular component: integral to membrane, GO 0016021, Total 1549
[17] = Cellular component: microtubule cytoskeleton, GO 0015630, Total 78
[18] = Cellular component: mitochondrial membrane, GO 0005740, Total 75
[19] = Cellular component: nuclear membrane, GO 0005635, Total 50
[20] = Cellular component: nucleolus, GO 0005730, Total 39
[21] = Cellular component: nucleoplasm, GO 0005654, Total 91
[22] = Cellular component: plasma membrane, GO 0005886, Total 1041
[23] = Molecular function: Apoptosis regulator activity, GO 0016329, Total 44
[24] = Molecular function: Binding, GO 0005488, Total 3368
[25] = Molecular function: Catalytic activity, GO 0003824, Total 2129
[26] = Molecular function: Cell adhesion molecule activity, GO 0005194, Total 209
[27] = Molecular function: Defense/immunity protein activity, GO 0003793, Total 36
[28] = Molecular function: Enzyme regulator activity, GO 0030234, Total 306
[29] = Molecular function: Motor activity, GO 0003774, Total 61
[30] = Molecular function: Obsolete molecular function, GO 0008369, Total 419
[31] = Molecular function: Signal transducer activity, GO 0004871, Total 1157
[32] = Molecular function: Structural molecule activity, GO 0005198, Total 333
[33] = Molecular function: Transcription regulator activity, GO 0030528, Total 630
[34] = Molecular function: Translation regulator activity, GO 0045182, Total 43
[35] = Molecular function: Transporter activity, GO 0005215, Total 822
[36] = Molecular function: carrier activity, GO 0005386, Total 239
[37] = Molecular function: electron transporter activity, GO 0005489, Total 138
[38] = Molecular function: enzyme inhibitor activity, GO 0004857, Total 132
[39] = Molecular function: extracellular matrix structural constituent, GO 0005201, Total 60
[40] = Molecular function: hydrolase activity, GO 0016787, Total 917
[41] = Molecular function: kinase activity, GO 0016301, Total 409
[42] = Molecular function: lipid binding, GO 0008289, Total 94
[43] = Molecular function: metal ion binding, GO 0046872, Total 631
[44] = Molecular function: nucleic acid binding, GO 0003676, Total 1232
[45] = Molecular function: nucleotide binding, GO 0000166, Total 763
[46] = Molecular function: oxidoreductase activity, GO 0016491, Total 320
[47] = Molecular function: protein binding, GO 0005515, Total 814
[48] = Molecular function: receptor activity, GO 0004872, Total 678
[49] = Molecular function: receptor binding (under Binding), GO 0005102, Total 301
[50] = Molecular function: receptor binding (under Signal transducer activity), GO 0005102, Total 301
[51] = Molecular function: receptor signaling protein activity, GO 0005057, Total 127
[52] = Molecular function: structural constituent of cytoskeleton, GO 0005200, Total 62
[53] = Molecular function: transcription factor activity, GO 0003700, Total 472
[54] = Molecular function: transferase activity, GO 0016740, Total 706

Nc1ncn([C@H]2C[C@H](O)[C@@H](CO)O2)c(=O)n1 [5-aza-dC, 5-aza-2′-deoxycytidine]
23: 5-aza-dC Up [7] | 5-aza-dC Up [31]
3: 5-aza-dC Up [9] | 5-aza-dC Down [22] | 5-aza-dC Up [26] | 5-aza-dC Down [32] | 5-aza-dC Up [36] | 5-aza-dC Down [41] | 5-aza-dC Down [45]
4: 5-aza-dC Up [4] | 5-aza-dC Up [6] | 5-aza-dC Up [14] | 5-aza-dC Up [23] | 5-aza-dC Up [32] | 5-aza-dC Up [38] | 5-aza-dC Down [40] | 5-aza-dC Down [48]
9: 5-aza-dC Down [2] | 5-aza-dC Down [24]
8: 5-aza-dC Up (Cellular component: Cellular—component unknown, GO 0008372, Total 266) | 5-aza-dC Up [54]
83: 5-aza-dC Up [24]
43: 5-aza-dC Up [25]
14: 5-aza-dC Up [35] | 5-aza-dC Up [49] | 5-aza-dC Up [50]
18: 5-aza-dC Up [16] | 5-aza-dC Up [33]
6: 5-aza-dC Down [8] | 5-aza-dC Up [28] | 5-aza-dC Down [44] | 5-aza-dC Up [46]
1: 5-aza-dC Down [4] | 5-aza-dC Down [5] | 5-aza-dC Down [6] | 5-aza-dC Down [7] | 5-aza-dC Down [11] | 5-aza-dC Up [11] | 5-aza-dC Up [13] | 5-aza-dC Down [17] | 5-aza-dC Up [20] | 5-aza-dC Up [27] | 5-aza-dC Down [30] | 5-aza-dC Down [34] | 5-aza-dC Up [34] | 5-aza-dC Down [35] | 5-aza-dC Down [36] | 5-aza-dC Down [37] | 5-aza-dC Up [39] | 5-aza-dC Up [42] | 5-aza-dC Down [47] | 5-aza-dC Down [49] | 5-aza-dC Down [50] | 5-aza-dC Up [52]
7: 5-aza-dC Down [10]
0: 5-aza-dC Down [1] | 5-aza-dC Down [3] | 5-aza-dC Down [12] | 5-aza-dC Up [12] | 5-aza-dC Down [13] | 5-aza-dC Down [14] | 5-aza-dC Down [15] | 5-aza-dC Up [17] | 5-aza-dC Down [18] | 5-aza-dC Up [18] | 5-aza-dC Down [19] | 5-aza-dC Up [19] | 5-aza-dC Down [20] | 5-aza-dC Down [21] | 5-aza-dC Down [23] | 5-aza-dC Down [26] | 5-aza-dC Down [27] | 5-aza-dC Down [29] | 5-aza-dC Up [29] | 5-aza-dC Down [33] | 5-aza-dC Down [39] | 5-aza-dC Down [42] | 5-aza-dC Down [43] | 5-aza-dC Down [51] | 5-aza-dC Up [51] | 5-aza-dC Down [52] | 5-aza-dC Down [53]
36: 5-aza-dC Up [44]
26: 5-aza-dC Up [47]
10: 5-aza-dC Up [1] | 5-aza-dC Up [45]
44: 5-aza-dC Up [10]
24: 5-aza-dC Up [8]
12: 5-aza-dC Down [25] | 5-aza-dC Up [30] | 5-aza-dC Up [43] | 5-aza-dC Up [53]
25: 5-aza-dC Up [40]
11: 5-aza-dC Up [48]
5: 5-aza-dC Down [16] | 5-aza-dC Up [21] | 5-aza-dC Down [28] | 5-aza-dC Down [31] | 5-aza-dC Up [37] | 5-aza-dC Down [54]
13: 5-aza-dC Up [15] | 5-aza-dC Up [22]
30: 5-aza-dC Up [2]
2: 5-aza-dC Up [3] | 5-aza-dC Up [5] | 5-aza-dC Down [9] | 5-aza-dC Down [38] | 5-aza-dC Up [41] | 5-aza-dC Down [46]
